# Source: patent publication US20230303495A9, “PYRIDINE OXYNITRIDE, PREPARATION METHOD THEREFOR AND USE THEREOF” (Orion Corporation, priority 2019, published 2023)
# Legend:
# NaV1.8 = target: T1, NaV1.8 (Homo sapiens, UniProt Q9Y5Y9); test: Whole-cell patch clamp blocking activity against NaV1.8 channel current; format: cell-based; details: for IC50: CHO cell line stably expressing Nav1.8 (SCN10A: NM_006514), patch clamp; for Blocking rate (%) @100 nM: against NaV1.8 at 100 nM, CHO cell line stably expressing Nav1.8, patch clamp
# T1 construct: expressed in transfected cells
# T1 sequence (Q9Y5Y9 whole entry): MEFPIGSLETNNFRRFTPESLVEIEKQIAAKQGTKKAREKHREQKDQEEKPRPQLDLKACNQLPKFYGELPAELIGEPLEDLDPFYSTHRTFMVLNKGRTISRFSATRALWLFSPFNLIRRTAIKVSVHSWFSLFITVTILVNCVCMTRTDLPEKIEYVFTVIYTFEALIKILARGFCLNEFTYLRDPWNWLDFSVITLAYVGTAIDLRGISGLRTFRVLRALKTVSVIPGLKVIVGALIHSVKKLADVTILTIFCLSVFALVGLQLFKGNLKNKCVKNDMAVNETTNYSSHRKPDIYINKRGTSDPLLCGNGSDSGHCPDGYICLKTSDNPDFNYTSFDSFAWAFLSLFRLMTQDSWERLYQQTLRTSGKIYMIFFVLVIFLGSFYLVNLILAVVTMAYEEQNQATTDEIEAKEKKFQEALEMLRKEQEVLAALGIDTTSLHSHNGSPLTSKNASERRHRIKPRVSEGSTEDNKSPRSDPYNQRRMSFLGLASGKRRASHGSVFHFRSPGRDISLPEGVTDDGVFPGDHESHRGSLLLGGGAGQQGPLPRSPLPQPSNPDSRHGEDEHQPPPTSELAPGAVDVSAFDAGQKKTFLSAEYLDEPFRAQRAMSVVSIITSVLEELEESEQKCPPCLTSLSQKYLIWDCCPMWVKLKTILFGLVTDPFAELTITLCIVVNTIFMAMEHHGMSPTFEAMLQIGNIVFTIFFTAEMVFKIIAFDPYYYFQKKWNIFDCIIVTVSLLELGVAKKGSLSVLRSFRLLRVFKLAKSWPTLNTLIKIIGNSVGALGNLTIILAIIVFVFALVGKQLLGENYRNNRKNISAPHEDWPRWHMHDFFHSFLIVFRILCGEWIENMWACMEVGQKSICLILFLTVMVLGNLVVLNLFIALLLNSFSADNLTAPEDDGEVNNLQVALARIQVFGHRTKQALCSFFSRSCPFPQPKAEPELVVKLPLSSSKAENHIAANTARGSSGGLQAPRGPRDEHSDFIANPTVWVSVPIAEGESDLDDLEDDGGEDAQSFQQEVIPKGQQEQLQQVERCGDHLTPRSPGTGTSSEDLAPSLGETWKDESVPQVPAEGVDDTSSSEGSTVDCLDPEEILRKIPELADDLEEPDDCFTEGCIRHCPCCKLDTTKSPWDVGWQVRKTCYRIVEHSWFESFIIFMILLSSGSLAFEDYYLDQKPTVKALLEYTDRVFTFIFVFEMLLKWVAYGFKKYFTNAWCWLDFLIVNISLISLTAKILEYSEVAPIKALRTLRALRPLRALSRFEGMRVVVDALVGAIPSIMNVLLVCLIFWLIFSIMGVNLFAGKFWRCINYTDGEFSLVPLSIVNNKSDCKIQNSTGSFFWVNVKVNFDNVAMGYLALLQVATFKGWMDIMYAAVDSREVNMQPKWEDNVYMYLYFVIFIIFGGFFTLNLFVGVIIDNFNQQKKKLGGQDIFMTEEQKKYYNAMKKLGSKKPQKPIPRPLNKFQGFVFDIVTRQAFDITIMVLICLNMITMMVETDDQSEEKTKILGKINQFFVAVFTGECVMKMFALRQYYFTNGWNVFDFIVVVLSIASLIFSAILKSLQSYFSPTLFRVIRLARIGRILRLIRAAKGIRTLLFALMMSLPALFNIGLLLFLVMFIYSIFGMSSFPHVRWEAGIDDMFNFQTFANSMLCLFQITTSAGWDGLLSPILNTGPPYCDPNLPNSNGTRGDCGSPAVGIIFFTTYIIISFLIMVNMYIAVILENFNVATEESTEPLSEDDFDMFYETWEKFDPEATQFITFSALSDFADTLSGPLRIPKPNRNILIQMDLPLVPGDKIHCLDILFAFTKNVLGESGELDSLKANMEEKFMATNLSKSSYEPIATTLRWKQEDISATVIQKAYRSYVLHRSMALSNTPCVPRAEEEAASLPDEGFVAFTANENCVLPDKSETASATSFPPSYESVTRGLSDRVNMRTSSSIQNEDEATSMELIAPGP
# Protocol: 1. Test method: patch clamp technique was used to detect the influence of compounds on voltage-gated sodium channel (NaV) 1.1-1.8 subtype current
# 1) The specific information of the CHO cell line stably expressing the Nav1.8 channel was as follows: SCN10A: NM_006514
# 2) Cells were cultured in HAM'S/F-12 medium containing 10% fetal bovine serum and 10 μg/mL Blasticidin, 200 μg/mL Hygromycin B and 100 μg/mL Zeocin, culture temperature was 37° C. and the concentration of CO2 was 5%.
# 5) Patch clamp detection, before the experiment, the cells were separated with 0.25%—trypsin EDTA, inoculated into a 24 well plate with a density of 8*10^3 cells per well (final volume: 500 μL), tetracycline was added thereto, and experimental test was performed on the next day.
# 1) Extracellular fluid: 140 mM NaCl, 3.5 mM KCl, 2 mM CaCl2, 10 mM HEPES, 1.25 mM NaH2PO4, 1 mM MgCl2, 10 mM Glucose, pH=7.4 (NaOH).
# 2) Intracellular fluid: 50 mM CsCl, 10 mM NaCl, 10 mM HEPES, 20 mM EGTA, 60 mM CsF, pH=7.2 (CsOH).
# The voltage stimulation scheme of whole-cell patch clamp recording of Nav channel current was as follows: first the membrane potential of the cell was clamped at −130 mV, and then the voltage was stepped to −40 mV or −20 mV at 10 mv step intervals for 8 s. The clamping voltage was maintained at −120 mV, and data was collected repeatedly every 20 seconds. The peak amplitude of its inward current was measured to determine its half-inactivation voltage.
# The cell clamping potential was set at −120 mV. The resting and half-inactivation inhibition of sodium current was measured using double pulse mode. The double pulse mode was completed by two 0 mV depolarization test pulses (TP1 and TP2) lasting 50 ms. The conditional voltage between the two depolarization pulses was set near the half-inactivation voltage (lasting 8 s). […] The data acquisition was repeated at an interval of 20 s and the current peak was measured at the two test pulses.
# When the current of the Nav channel recorded by the whole cell was stable, the drug was administered, after each drug concentration was applied for 5 minutes (or the current was stable), the next concentration would be tested, and multiple concentrations would be tested for each test compound. The cover glass covered with cells was placed in the recording bath of an inverted microscope, the test compound and the external liquid without compound flowed through the recording chambers in turns from low concentration to high concentration by gravity perfusion, so as to act on the cells, in the recording, the liquid exchange was carried out by vacuum pump. The current detected in each cell in the compound-free external fluid served as its own control group. Multiple cells were detected independently and repeatedly. All electrophysiological experiments were performed at room temperature.
# First, the current after the action of each drug concentration and the blank control current were normalized, and then the blocking rate corresponding to each drug concentration was calculated. The mean and standard error were calculated for each concentration, and all the above values were calculated by Microsoft Excel 2013. In addition, the half-inhibitory concentration of each compound was calculated by IGOR software with the following equation: retardation rate=1/[1+(IC50/c)^h].
# The dose-dependent effect was nonlinearly fitted with the above equation, wherein, c refers to the drug concentration, IC50 was the half inhibitory concentration, and h refers to the Hill coefficient. The curve fitting and the calculation of IC50 were completed by IGOR software (software version: 6.0.1.0).
# [1] = In vivo pharmacokinetics of rat, single intravenous injection or oral administration by gavage; set-up: species or system Male Sprague Dawley rats; details: male, Sprague-Dawley, plasma; for Vd: read-out: VZ; for bioavailability: intragastric (gavage) 10 mg/kg vs intravenous 1 mg/kg
# Protocol: In this experimental embodiment, the in vivo pharmacokinetics of rat was evaluated by a single intravenous injection or oral administration by gavage.
# Experimental methods and conditions: Male Sprague Dawley rats, all animals were fasted overnight, and the test compound was given 1 mg/Kg (intravenous injection, solvent […]) and 10 mg/Kg (administrated by gavage) respectively, 5, 15, 30 min, 1, 2, 4, 6, 8 and 24 hr after administration, blood was collected through the submandibular vein, about 0.20 mL of each sample was collected, heparin sodium was used for anticoagulation, the samples were placed on ice after the collection, then centrifuged within 1 hour to separate the plasma for testing. The blood drug concentration in plasma was detected by liquid-phase tandem mass spectrometry (LC/MS/MS), and the pharmacokinetic parameters were calculated by the measured concentration.
# [2] = intravenous administration 1 mg/kg
# [3] = po, intragastric (gavage) 10 mg/kg
SMILES,IC50 (NaV1.8) [nM],"AUC(0-inf) [1, 2] [µg·h/mL]","clearance [1, 2] [mL/min/kg]","half-life [1, 2] [h]","Vd [1, 2] [L/kg]","AUC(0-inf) [1, 3] [µg·h/mL]","Cmax [1, 3] [ng/mL]","half-life [1, 3] [h]",bioavailability ([1]; po) [%],Blocking rate (%) @100 nM (NaV1.8) [%]
O=C(Nc1cc[n+](O)nc1)c1c(Oc2ccc(OC(F)(F)F)cc2)ccc(C(F)(F)F)c1F [Embodiment A46],3.1,15.6,1.08,20.1,1.85,2930,2060,915,46.8,–
O=C(Nc1cc[n+]([O-])nc1)c1c(Oc2ccc(OC(F)(F)F)c(F)c2)ccc(C(F)(F)F)c1F [Embodiment A56],3.7,9.6,1.74,13.1,1.97,117,3000,27.9,68.2,–
O=C(Nc1ccc[n+]([O-])c1)c1c(Oc2ccc(OC(F)(F)F)cc2)ccc(CC2CC2)c1F [Embodiment A98],–,–,–,–,–,–,–,–,–,95.70
O=C(Nc1cc[n+]([O-])cc1)c1c(Oc2ccc(OC(F)(F)F)cc2)cc(Cl)c(Cl)c1F [Embodiment A100],–,–,–,–,–,–,–,–,–,97.60
Cc1cc(F)ccc1Oc1cc(C(F)(F)F)c(Cl)c(F)c1C(=O)Nc1ccc[n+]([O-])c1 [Embodiment A104],–,–,–,–,–,–,–,–,–,97.93
COc1c(Cl)c(C(F)(F)F)cc(Oc2ccc(F)cc2C)c1C(=O)Nc1ccc[n+]([O-])c1 [Embodiment A105],–,–,–,–,–,–,–,–,–,98.42
Cc1cc(F)ccc1Oc1cc(C(F)(F)F)c(Br)cc1C(=O)Nc1ccc[n+]([O-])c1 [Embodiment A107],–,–,–,–,–,–,–,–,–,95.60
Cc1cc(F)ccc1Oc1cc(C(F)(F)F)c(Br)c(F)c1C(=O)Nc1ccc[n+]([O-])c1 [Embodiment A110],–,–,–,–,–,–,–,–,–,98.75
O=C(Nc1ccc[n+]([O-])c1)c1c(Oc2ccc(F)cc2C2CC2)cc(C(F)(F)F)c(Cl)c1F [Embodiment A111],–,–,–,–,–,–,–,–,–,99.42

# Second part, the compound after the results:
IC50 (NaV1.8) [nM],"AUC(0-inf) [1, 2] [µg·h/mL]","clearance [1, 2] [mL/min/kg]","half-life [1, 2] [h]","Vd [1, 2] [L/kg]","AUC(0-inf) [1, 3] [µg·h/mL]","Cmax [1, 3] [ng/mL]","half-life [1, 3] [h]",bioavailability ([1]; po) [%],Blocking rate (%) @100 nM (NaV1.8) [%],SMILES
6.2,1.46,11.4,0.7,0.699,10.6,1330,2.51,72.6,–,O=C(Nc1ccc[n+]([O-])c1)c1cc(Cl)c(Cl)cc1Oc1ccc(OC(F)(F)F)cc1 [Embodiment A11]
0.27,33.3,0.5,5.24,0.228,139,9700,5.72,41.8,99.15,O=C(Nc1ccc[n+]([O-])c1)c1c(Oc2ccc(OC(F)(F)F)cc2)cc(C(F)(F)F)c(Cl)c1F [Embodiment A68]
2,56.7,0.3,12.3,0.312,399,17100,12.2,70.4,–,O=C(Nc1ccc[n+]([O-])c1)c1cc(Cl)c(C(F)(F)F)cc1Oc1ccc(OC(F)(F)F)cc1 [Embodiment A69]
–,18.8,0.91,4.53,0.355,67.2,4920,5.75,35.7,99.14,O=C(Nc1ccc[n+]([O-])c1)c1c(Oc2ccc(OC(F)(F)F)c(F)c2)cc(C(F)(F)F)c(Cl)c1F [Embodiment A84]
–,–,–,–,–,–,–,–,–,86.65,O=C(Nc1ccc[n+]([O-])c1)c1cc(C(F)(F)F)c(C2CC2)cc1Oc1ccc(OC(F)(F)F)cc1 [Embodiment A97]
–,–,–,–,–,–,–,–,–,98.47,O=C(Nc1ccc[n+]([O-])c1)c1c(Oc2ccc(OCC(F)(F)F)cc2)cc(Cl)c(Cl)c1F [Embodiment A101]
–,–,–,–,–,–,–,–,–,82.71,O=C(Nc1cc[n+]([O-])cc1)c1c(Oc2ccc(OC(F)(F)F)cc2)cnc(C(F)(F)F)c1Cl [Embodiment A102]
–,2.76,6.15,2.28,1.19,14,1710,2.47,50.7,92.47,Cc1cc(F)ccc1Oc1cc(C(F)(F)F)c(Cl)cc1C(=O)Nc1ccc[n+]([O-])c1 [Embodiment A103]
3,–,–,–,–,–,–,–,–,–,O=C(Nc1ccc[n+]([O-])c1)c1cc(Cl)c(C(F)(F)F)cc1Oc1ccc(F)cc1C1CC1 [Embodiment A106]
–,–,–,–,–,–,–,–,–,96.92,O=C(Nc1ccc[n+]([O-])c1)c1cc(Cl)c(C(F)(F)F)cc1Oc1ccc(F)cc1OC1CC1 [Embodiment A108]
